This is an account of results in patent publication US10494366B2, “Pesticidally active amide heterocyclic derivatives with sulphur containing substituents” (Syngenta Participations AG, priority 2014, dated 2019).

The structures appear in SMILES notation.

Series [1] has as its system Diabrotica balteata (corn root worm). The experiment in a line: Example B4: Diabrotica balteata, sprayed maize sprouts. Type of series: in vivo. As to conditions: 96 h, application rate 200 ppm, L2 larvae, 4 days after infestation, read-out: effect in at least one of the two categories (mortality or growth inhibition). The procedure: Maize sprouts, placed on an agar layer in 24-well microtiter plates were treated with aqueous test solutions prepared from 10,000 ppm DMSO stock solutions by spraying. After drying, the plates were infested with L2 larvae (6 to 10 per well). The samples were assessed for mortality and growth inhibition in comparison to untreated samples 4 days after infestation.

The subject of series [2] is Myzus persicae (green peach aphid). The series is described as follows: Example B5: Myzus persicae, sprayed sunflower leaf discs. Type of series: in vivo. Conditions: foliar, 144 h, application rate 200 ppm, aphid population of mixed ages, 6 days after infestation. The method, then:
Sunflower leaf discs were placed on agar in a 24-well microtiter plate and sprayed with aqueous test solutions prepared from 10,000 ppm DMSO stock solutions. After drying, the leaf discs were infested with an aphid population of mixed ages. The samples were assessed for mortality 6 days after infestation.

Series [3] deals with Plutella xylostella (diamond back moth). The experiment in a line: Example B3: Plutella xylostella, treated artificial diet. As to conditions: 120 h, application rate 200 ppm, L2 larvae, 5 days after infestation, read-out: effect in at least one of the two categories (mortality or growth inhibition). Type of series: in vivo. The method, then:
24-well microtiter plates with artificial diet were treated with aqueous test solutions prepared from 10,000 ppm DMSO stock solutions by pipetting. After drying, the plates were infested with L2 larvae (10 to 15 per well). The samples were assessed for mortality and growth inhibition in comparison to untreated samples 5 days after infestation.

Series [4] deals with Spodoptera littoralis (Egyptian cotton leaf worm). The experiment in a line: Example B1: Spodoptera littoralis, sprayed cotton leaf discs. The class given is in vivo. As to conditions: foliar, 72 h, application rate 200 ppm, L1 larvae, 3 days after infestation, read-out: control in at least one of the three categories (mortality, anti-feedancy or growth inhibition). The method, then:
Cotton leaf discs were placed on agar in 24-well microtiter plates and sprayed with aqueous test solutions prepared from 10,000 ppm DMSO stock solutions. After drying the leaf discs were infested with five L1 larvae. The samples were assessed for mortality, anti-feedant effect, and growth inhibition in comparison to untreated samples 3 days after infestation. Control of Spodoptera littoralis by a test sample is when at least one of mortality, anti-feedant effect, and growth inhibition is higher than the untreated sample.

Series [5] has the same test system. The experiment in a line: Example B2: Spodoptera littoralis, systemic test via lettuce roots in agar. The class given is in vivo. As to conditions: 144 h, application rate 12.5 ppm, Spodoptera eggs, 6 days after infestation, read-out: control in at least one of the three categories (mortality, anti-feedancy or growth inhibition). The source says:
Test compounds were applied by pipette from 10,000 ppm DMSO stock solutions into 24-well plates and mixed with agar. Lettuce seeds were placed on the agar and the multi well plate was closed by another plate which contains also agar. After 7 days the roots have absorbed the compound and the lettuce has grown into the lid plate. The lettuce leafs were now cut off into the lid plate. Spodoptera eggs were pipetted through a plastic stencil on a humid gel blotting paper and the plate closed with it. The samples were assessed for mortality, anti-feedant effect and growth inhibition in comparison to untreated samples 6 days after infestation.
The following compounds gave an effect of at least 80% control in at least one of the three categories (mortality, anti-feedancy or growth inhibition) at an application rate of 12.5 ppm: P2, P3, P8, P9, P11 and P17, P19, P20, P22, P23, P25, P26, P28, P30, P31, P32, P33, P40, P42, P43, P44, P45, P46, P47, P48, P49, P50, P51, P52, P53, P54, P60 and P61.

Series [6] deals with Euschistus heros (neotropical brown stink bug). The experiment in a line: Example B6: Euschistus heros, sprayed soybean leaf. As to conditions: 120 h, application rate 200 ppm, N-2 nymphs, 5 days after infestation. The class given is in vivo. The source says:
Soybean leaf on agar in 24-well microtiter plates were sprayed with aqueous test solutions prepared from 10,000 ppm DMSO stock solutions. After drying the leaf were infested with N-2 nymphs.

The subject of series [7] is Tetranychus urticae (two-spotted spider mite). The experiment in a line: Example B8: Tetranychus urticae, sprayed bean leaf discs. The class given is in vivo. Conditions: foliar, 192 h, application rate 200 ppm, mixed population (mobile stages), 8 days after infestation. The source says:
Bean leaf discs on agar in 24-well microtiter plates were sprayed with aqueous test solutions prepared from 10,000 ppm DMSO stock solutions. After drying the leaf discs were infested with a mite population of mixed ages.

As to `CCSc1cc(-c2ccc(C(F)(F)F)cc2)cnc1C(=O)/N=c1\sc(C(F)(F)C(F)(F)F)nn1C`, the melting point (commonly the temperature, or range, at which the solid turns liquid) is 173 to 175 °C.

Regarding `CCS(=O)(=O)c1cc(-c2cccc(Cl)c2)cnc1C(=O)/N=c1\sc(C(F)(F)F)nn1C`, the melting point fell in the range of 184 to 186 °C.

For `CCS(=O)(=O)c1cc(-c2nccc(C(F)(F)F)n2)cnc1C(=O)/N=c1\sc(C(F)(F)F)nn1C` [Compound P40], the percent effect (mortality or growth inhibition) at 200 ppm in series [1] and in series [3] was at least 80% each time. Also, the mortality at 200 ppm in series [2] and in series [6] was at least 80% each time. Besides, in series [4], the percent control (mortality, anti-feedant effect or growth inhibition) at 200 ppm was at least 80%. For the same compound, the percent control (mortality, anti-feedant effect or growth inhibition) at 12.5 ppm in series [5] is at least 80%.

On to `CCS(=O)(=O)c1cc(-c2cncc(C(F)(F)F)c2)cnc1C(=O)/N=c1\sc(C(F)(F)F)nn1C` [Compound P53], for which the percent effect (mortality or growth inhibition) at 200 ppm in series [1] and in series [3] was at least 80% throughout. Further, the mortality (commonly the share of the test organisms that died) at 200 ppm in series [2] was at least 80%. In addition, in series [4], the percent control (mortality, anti-feedant effect or growth inhibition) at 200 ppm was at least 80%. In addition, the percent control (mortality, anti-feedant effect or growth inhibition) at 12.5 ppm in series [5] is at least 80%.

With `CCS(=O)(=O)c1cc(-c2ccc(Cl)cc2)cnc1C(=O)/N=c1\sc(C(F)(F)F)nn1C` [Compound P2, (N)-5-(4-chlorophenyl)-3-ethylsulfonyl-N-[3-methyl-5-(trifluoromethyl)-1,3,4-thiadiazol-2-ylidene]pyridine-2-carboxamide], the percent effect (mortality or growth inhibition) at 200 ppm in series [1] and in series [3] was at least 80% in each case. For the same compound, the mortality at 200 ppm in series [2] and in series [6] was at least 80% throughout. Also, in series [4], the percent control (mortality, anti-feedant effect or growth inhibition) at 200 ppm is at least 80%. Also, the percent control (mortality, anti-feedant effect or growth inhibition) at 12.5 ppm in series [5] is at least 80%.

Compound `CCS(=O)(=O)c1cc(-c2cc(C(F)(F)F)ccn2)cnc1C(=O)/N=c1\sc(C(F)(F)F)nn1C` [Compound P70] yielded a mortality at 200 ppm in series [7] of at least 80%. The percent effect (mortality or growth inhibition) at 200 ppm in series [1] and in series [3] was at least 80% in each case. In addition, the percent control (mortality, anti-feedant effect or growth inhibition) at 200 ppm in series [4] was at least 80%.

As to `CCSc1cc(-n2ccc(C(F)(F)F)n2)cnc1C(=O)/N=c1\sc(C(F)(F)C(F)(F)F)nn1C`, the melting point is 219 to 221 °C.

As for `CCS(=O)(=O)c1cc(-c2ccc(C(F)(F)F)cc2)cnc1C(=O)/N=c1\sc(C(F)(F)C(F)(F)F)nn1C` [Compound P8], the mortality at 200 ppm in series [7], in series [2] and in series [6] was at least 80% each time. Moreover, the percent effect (mortality or growth inhibition) at 200 ppm in series [1] and in series [3] was at least 80% in each case. Besides, the percent control (mortality, anti-feedant effect or growth inhibition) at 200 ppm in series [4] was at least 80%. In addition, the percent control (mortality, anti-feedant effect or growth inhibition) at 12.5 ppm in series [5] was at least 80%.

Turning to `CCS(=O)(=O)c1cc(-c2ccc(C(F)(F)F)cc2)ccc1C(=O)/N=c1\sc(C(F)(F)F)nn1C`, the melting point lay in the range of 140 to 142 °C.

Regarding `CCS(=O)(=O)c1cc(-c2ncc(Cl)cc2Cl)cnc1C(=O)/N=c1\sc(C(F)(F)F)nn1C` [Compound P46], the percent effect (mortality or growth inhibition) at 200 ppm in series [1] and in series [3] was at least 80% in each case. The mortality at 200 ppm in series [2] and in series [6] was at least 80% in each case. Besides, the percent control (mortality, anti-feedant effect or growth inhibition) at 200 ppm in series [4] was at least 80%. The percent control (mortality, anti-feedant effect or growth inhibition) at 12.5 ppm in series [5] was at least 80%.

Take `CCS(=O)(=O)c1cc(-c2cccc(Cl)n2)cnc1C(=O)/N=c1\sc(C(F)(F)F)nn1C` [Compound P64, (N)-5-(6-chloro-2-pyridyl)-3-ethylsulfonyl-N-[3-methyl-5-(trifluoromethyl)-1,3,4-thiadiazol-2-ylidene]pyridine-2-carboxamide]: the percent effect (mortality or growth inhibition) at 200 ppm in series [1] and in series [3] was at least 80% each time. Also, the mortality at 200 ppm in series [2] and in series [6] was at least 80% in each case. In addition, the percent control (mortality, anti-feedant effect or growth inhibition) at 200 ppm in series [4] is at least 80%.

As to `CCS(=O)(=O)c1cc(-c2ccccn2)cnc1C(=O)/N=c1\sc(C(F)(F)F)nn1C` [Compound P51], the percent effect (mortality or growth inhibition) at 200 ppm in series [1] and in series [3] was at least 80% throughout. In addition, the mortality at 200 ppm in series [2] and in series [6] was at least 80% each time. Further, the percent control (mortality, anti-feedant effect or growth inhibition) at 200 ppm in series [4] was at least 80%. Also, in series [5], the percent control (mortality, anti-feedant effect or growth inhibition) at 12.5 ppm was at least 80%.

As to `CCS(=O)(=O)c1cc(-c2ccnc(F)c2)cnc1C(=O)/N=c1\sc(C(F)(F)F)nn1C` [Compound P54], the percent effect (mortality or growth inhibition) at 200 ppm in series [1] and in series [3] was at least 80% in each case. For the same compound, the mortality at 200 ppm in series [2] and in series [6] was at least 80% each time. The percent control (mortality, anti-feedant effect or growth inhibition) at 200 ppm in series [4] was at least 80%. The percent control (mortality, anti-feedant effect or growth inhibition) at 12.5 ppm in series [5] is at least 80%.

As to `CCS(=O)(=O)c1cc(-c2ccc(Cl)cc2)cnc1C(=O)/N=c1\sc(C(F)(F)C(F)(F)F)nn1C` [Compound P11], the percent effect (mortality or growth inhibition) at 200 ppm in series [1] and in series [3] was at least 80% throughout. Further, the mortality at 200 ppm in series [2] and in series [6] was at least 80% each time. Also, the percent control (mortality, anti-feedant effect or growth inhibition) at 200 ppm in series [4] was at least 80%. For the same compound, the percent control (mortality, anti-feedant effect or growth inhibition) at 12.5 ppm in series [5] is at least 80%.

In series [7], `CCS(=O)(=O)c1cc(-c2cccc(OC(F)(F)F)c2)cnc1C(=O)/N=c1\sc(C(F)(F)F)nn1C` [Compound P31] showed a mortality at 200 ppm of at least 80%. In addition, the percent effect (mortality or growth inhibition) at 200 ppm in series [1] and in series [3] was at least 80% throughout. Besides, the percent control (mortality, anti-feedant effect or growth inhibition) at 200 ppm in series [4] is at least 80%. Moreover, in series [5], the percent control (mortality, anti-feedant effect or growth inhibition) at 12.5 ppm is at least 80%.

For `CCS(=O)(=O)c1cc(C2(C#N)CC2)cnc1C(=O)/N=c1\sc(C(F)(F)F)nn1C` [Compound P19], the percent effect (mortality or growth inhibition) at 200 ppm in series [1] and in series [3] was at least 80% each time. Besides, the mortality at 200 ppm in series [2] and in series [6] was at least 80% in each case. In addition, in series [4], the percent control (mortality, anti-feedant effect or growth inhibition) at 200 ppm is at least 80%. The percent control (mortality, anti-feedant effect or growth inhibition) at 12.5 ppm in series [5] is at least 80%.

On to `CCS(=O)(=O)c1cc(-c2cccc3c2OC(F)(F)O3)cnc1C(=O)/N=c1\sc(C(F)(F)F)nn1C` [Compound P29], for which the mortality at 200 ppm in series [7] and in series [6] was at least 80% throughout. In addition, the percent effect (mortality or growth inhibition) at 200 ppm in series [1] and in series [3] was at least 80% in each case. Also, the percent control (mortality, anti-feedant effect or growth inhibition) at 200 ppm in series [4] was at least 80%.

`CCSc1cc(-c2ccc(Cl)cc2)cnc1C(=O)/N=c1\sc(C(F)(F)F)nn1C`: the melting point lay within 147 to 148 °C.

Turning to `CCS(=O)(=O)c1cc(-c2nc(C(F)(F)F)cs2)cnc1C(=O)/N=c1\sc(C(F)(F)F)nn1C` [Compound P60], the percent effect (mortality or growth inhibition) at 200 ppm in series [1] and in series [3] was at least 80% each time. This compound gave a mortality at 200 ppm in series [2] of at least 80%. The percent control (mortality, anti-feedant effect or growth inhibition) at 200 ppm in series [4] is at least 80%. The percent control (mortality, anti-feedant effect or growth inhibition) at 12.5 ppm in series [5] is at least 80%.
